Values joined by “and” are separate entries in the source; they are usually repeats but may differ in a detail not shown here. Equal values may be shown once.
Experiments:
[1] = system: REV-ERBα F497A, F443A, L480A, F439A, and F484A; assay: two-hybrid reporter assay with mutant receptors; format: cell-based, human; conditions: F484A vs WT
Method: The removal of the bulkier Phe488 sidechain may allow for the ligand binding pocket to wrap around the ligand more tightly, which may explain the higher activity of this mutant REV-ERB.
The NCoR-Vp16 plasmid and REV-ERBα/β-FL GAL4-DBD wild-type or point mutation plasmids were incubated with the transfection agent, Lipofectamine 2000. GFP plasmid was also in the transfection mix to confirm transfection efficiency. HEK cells were plated in 10 cm dishes for western blot analysis, and HEK UAS-luc cells were plated in 96 well plates for luciferase assay analysis. Prior to cellular adherence, transfection mix was added. The cells and transfection mix were incubated at 37 °C in a humidified atmosphere of 5% CO2. The transfection incubation lasted overnight for luciferase assays and 48 h for protein isolation/western blot analysis. For luciferase assays, REV-ERB agonists were added in an 11-point serial dilution the day following overnight transfection. Cells were incubated with the compound for 24 h, prior to luciferin addition and luminescence read out.

[2] = tissue exposure following i.p. administration; format: in vivo, C57Bl/6 J mice; conditions: mice
Method: To test the efficacy of STL1267 in vivo, we began by assessing tissue exposure following i.p. administration. We administered vehicle or 50 mg/kg of STL1267 via intraperitoneal injection to C57Bl/6 J mice. The mice were sacrificed at four subsequent time points over the next 12 h.
All in vivo studies were performed using the ARRIVE guidelines and approved by the Washington University IACUC. C57Bl/6J mice (male; 6–8 weeks of age) maintained at 12:12 h light;dark, 22 °C, 40–60% humidity. Mice were injected IP with 50 mg/kg STL1267 (n = 3–4 per group) or vehicle (10% DMSO, 12% TWEEN80, PBS) (n = 3–4 per group). Mice were weighed immediately following the injection and were weighed again immediately after sacrifice. Mice were fasted started at the time of injection. For tissue collection, three STL1267-injected mice were sacrificed at 1 h post-injection, and three more were sacrificed at 3 h post-injection. At 8 h and 12 h post-injection, six mice from each treatment group were taken down and tissue was collected. The tissues collected at all four time points include plasma, white adipose tissue, brain, liver, and skeletal muscle (quadriceps). […] Analytes were extracted using protein precipitation techniques with acetonitrile and samples were then analyzed using a SCIEX Triple Quad 5500+ system – QTRAP ready linked to an ExionLC AD-HPLC system. […]

[3] = system: Bmal1 expression in liver; assay: Bmal1 expression in liver after i.p. administration; format: in vivo, C57Bl/6 J mice; conditions: mice, 50 mg/kg i.p., 12 h post administration, single animals

Clc1nnc2ccc(Oc3ccccc3-c3ccccc3)nn12 [STL1267]
effect of mutation on STL1267 induced REV-ERBα/NCoR interaction [1]: loss or severe reduction in activity | half-life ([2]; male, C57Bl/6J, mouse, plasma, ip, 50 mg/kg intraperitoneal injection): ~1.6 h | tissue distribution (brain, plasma, liver, skeletal muscle, white adipose tissue) ([2]; 50 mg/kg i.p.): localized in all the tissues collected | Bmal1 expression in liver [3]: effectively suppressed Bmal1 expression and 0.9475 and 0.6115 and 0.4288 and 0.62 and 0.8061 and 0.4099

From article PMC9681850, “Structural basis of synthetic agonist activation of the nuclear receptor REV-ERB” (Nature Communications, 2022)
